Data as given in the NIST ThermoML archive (doi:10.1016/j.jct.2013.10.025).
Numbers after ± are expanded uncertainties.

Settings: 298.15 K, 101.33 kPa, Liquid; for viscosity: Capillary tube (Ostwald / Ubbelohde) method; for speed of sound: Sing-around technique in a fixed-path interferometer; for mass density: Vibrating tube method

Row | viscosity [mPa·s] | speed of sound [m/s] | mass density [kg/m3] | SMILES
1 | 10.61 ± 0.37 | 1379.3 ± 1.6 | 826.407 ± 0.24 | CCCCCCCCCCO [decan-1-ol]
2 | 4.436 ± 0.36 | 1303.5 ± 1.5 | 815.295 ± 0.24 | CCCCCCO [hexan-1-ol]
3 | 7.446 ± 0.36 | 1347.9 ± 1.5 | 821.837 ± 0.24 | CCCCCCCCO [octan-1-ol]
4 | 0.474 | 1280.1 ± 1.5 | 882.15 ± 0.23 | C1CCOC1 [tetrahydrofuran]
